# From paper PMC5770468, “Cardiac glycoside/aglycones inhibit HIV-1 gene expression by a mechanism requiring MEK1/2-ERK1/2 signaling” (Scientific Reports, 2018)
# Tested on: SRp20/SRSF3
# Experiment: Immunoblot of SRp20 in HeLa rtTA-HIV-ΔMls cells
# Format: cell-based, human
# Details: 3 d with ~IC50s of CSs
# Text: Figure 4 CSs suppress HIV-1 gene expression by altering viral RNA processing. […] (a,b) CSs induce oversplicing of HIV-1 RNAs (n ≥ 3, mean, s.e.m.). (a) Diagram of the primer positions (arrow heads) used for qRT-PCR. (b) Graph of the relative amount of US (black), SS (white), and MS (gray) HIV-1 RNAs in cells treated with various CSs. (c) Nuclear export of HIV-1 US RNAs in cells is altered by CSs (representative n ≥ 4). HIV-1 US RNAs were localized by FISH after treating HeLa rtTA-HIV(Gag-GFP) cells as described above but with ~IC90s of CSs. Nuclei were stained by DAPI and images captured at 630 × magnification. […] SRp20, Tra2β, and tubulin were analyzed by immunoblot of HeLa rtTA-HIV-ΔMls cells treated as described above except cells of this representative blot were treated 3 d with ~IC50s of CSs. […]
# To monitor HIV-1 gene expression or replication, Gag release into cell culture supernatants were assayed by ELISA using a p24^CA antigen capture assay kit (AIDS & Cancer Virus Program, NCI-Frederick, Frederick, MD USA). […] For analysis of HIV-1 and SR protein expression (and phosphorylation states with calf intestinal alkaline phosphatase treatments), cells were lysed and analyzed by western blot as previously outlined. […] Activation of MAPKs was determined by western blot quantitation and calculation of phospho/total protein levels. […]
smiles,measurement,value
C[C@]12CC[C@H](O)C[C@H]1CC[C@@H]1[C@@H]2CC[C@]2(C)[C@@H](C3=CC(=O)OC3)CC[C@]12O [Digitoxigenin],mobility of SRp20,increased the mobility
